The values below come from patent US20150079590A1, “CHARACTERIZATION AND ANALYSIS OF THE COMPOSITION AND DYNAMICS OF THE MAMMALIAN RIBOPROTEOME” (Beth Israel Deaconess Medical Center, Inc., priority 2013, published 2015).

Assay [1] concerns riboproteomes of PPC1 prostate cancer cells. In words: SILAC riboproteomic analysis of polysomes upon mTOR inhibition. In kind it is cell-based, human.
Experimental: SILAC labeled protein mixtures were run by SDS-PAGE and gel lanes were cut into 8 sections for overnight digestion at pH 8.0 with modified sequencing grade trypsin (Promega Corp.). Peptide mixtures were eluted and each gel section was analyzed separately by microcapillary liquid chromatography-tandem mass spectrometry (LC-MS/MS) using the EASY-nLC nanoflow HPLC (Thermo Fisher Scientific) with a 75 μm inner diameter×15 cm length Picofrit capillary column (New Objective, Inc.) self-packed with 5 μm Magic C18 resin (Michrom Bioresources) coupled to a hybrid LTQ Orbitrap XL-ETD mass spectrometer (Thermo Fisher Scientific). The LTQ Orbitrap XL was operated in data-dependent acquisition (DDA) Top 5 mode (1 profile FT-MS spectrum followed by 6 centroided IT-MS/MS spectra). The resolution was 30,000 in FT-MS mode and MS/MS spectra were read out at low resolution in the LTQ XL ion trap. […] Carbamidomethylation of cysteine was set as fixed modification and variable modifications were oxidation of methionine and protein N-acetylation. […] Initial peptide mass tolerance was set to 12 ppm and fragment ion mass tolerance was set to 0.8 Da. Two missed cleavages were allowed and the minimal length required for a peptide was six amino acids. […]
Assay [2] concerns binding of LARP1 at the polysome. Kind of assay: Micrococcal nuclease (MN) assay on pooled sucrose gradient fractions, ribosome pelleting and western blot. The conditions noted are these: cells treated with PP242 prior to analysis. For orientation: Immunoblotting shows a protein as a band on a membrane.
Experimental: Pooled sucrose gradient fractions containing LARP1 protein, were treated with and without MN. Ribosomes were subsequently pelleted by ultracentrifugation, and the protein in supernatant and pellet isolated for western blot analysis.
Assay [3] deals with ribosome-mRNA complexes of PC3 prostate cancer cells. Kind of assay: Puromycin-mediated dissociation of ribosome-mRNA complexes, western blot of polysomal fractions. In kind it is biochemical, human. Conditions: 1 mM puromycin in lysis buffer, 37° C. 15 min. The protocol: Puromycin-induced polysome dissociation was carried out by the addition of 1 mM puromycin directly to the lysis buffer lacking cycloheximide as previously described (Blobel and Sabatini, Proc Natl Acad Sci USA 68:390-394, 1971; Fuchs et al., J Mol Biol. 410:118-130, 2011). Briefly, following lysis, the samples were incubated at 37° C. for 15 min to dissociate ribosome-mRNA complexes. Lysates were centrifuged at 13,000 rpm for 5 min at 4° C., and the supernatant carefully removed and loaded on a 15%-50% sucrose gradient. Gradients were centrifuged and fractionated as described above.
Cells were lysed in lysis buffer containing Complete Mini protease inhibitors (EDTA free) (Roche) and a Phosphatase Inhibitor cocktail (Thermo Scientific). 5-50 μg of total protein was subjected to SDS-PAGE on 4-12% Bis-Tris acrylamide NuPAGE gels in MOPS SDS running buffer (Invitrogen). The following primary antibodies were used: MARCKS, phospho-MARCKS (S152/156), Integrin β1, Calmodulin, Hsp27, Hsp60, RpL13a, RpL7a, and RpS6 (all Cell Signaling), HSP90, (BD Bioscience; BD Transduction Laboratories), hnRNPC1/C2 (Millipore), Rps14 and β-actin (all from Santa Cruz Biotechnologies). The NPM antibody was from DAKO and the IGF2BP3 antibody was from ProteinTech. Subsequently, membranes were incubated with secondary, HRP-tagged antibodies (Amersham) and signals were visualized with ECL or ECL plus (Amersham). […]

Each structure is given as a SMILES string.

Consider `CC(C)n1nc(-c2cc3cc(O)ccc3[nH]2)c2c(N)ncnc21` [PP242], for which the “disassociation of proteins incl. ribosomal proteins (RpL4, RpL6, RpS6) from the riboproteome” value in assay [1] (PP242 500 nM for three hours vs DMSO) was “rapid and significant disassociation from the riboproteome”. For the same compound, the “impact on the composition of the riboproteome” value in assay [1] (rapamycin 20 nM or PP242 500 nM for three hours vs DMSO, SILAC mass spectrometry of polysomes) was “much stronger and more robust perturbation of the riboproteome”. In assay [2], the “LARP1 in supernatant after ribosome pelleting” value is listed as “more LARP1 observed in the supernatant” and the “PABP association with polysome fractions” value is on record as “remain tightly intact with polysome fractions”.

Turning to `COc1ccc(C[C@H](N)C(=O)N[C@H]2[C@@H](O)[C@H](n3cnc4c(N(C)C)ncnc43)O[C@@H]2CO)cc1` [puromycin], the “RpS6 and RpL13a on polyribosomes” value in assay [3] (pooled polysomal fractions) is “loss of RpS6 and RpL13a from polyribosomes”. Moreover, in assay [3] (PC3 cells), the “presence of MARCKS in polyribosome fractions” value is reported as “dramatically decreased”.
